Test systems include NCI-H460 lung; COLO 205 colon; SNB-19 CNS; ACHN renal; A549 NSCLC; RPMI-8226 leukemia; KM12 colon; SR leukemia; NCI-H226 lung; NCI/ADR-RES ovarian; LOX IMVI melanoma; BT-549 breast; SW-620 colon; MDA-MB-435; 786-0 renal; A498 renal; CCRF-CEM leukemia; NCI-H23 lung; HCT-116 colon; U251 CNS.
Experiment in all cases: NCI tumour cell line growth inhibition, 48 h

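Following 48 hours of exposure in 96-well plates, responses at five concentrations were used to interpolate endpoints linearly. TGI: total growth inhibition.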 A value given as a limit tells only on which side of the number the result lay.

`CCOC(=O)c1nc2ccc(C(F)(F)F)cc2nc1Nc1ccc(OC)c(OC)c1`: the TGI with NCI-H460 lung, with COLO 205 colon, in the assay on SNB-19 CNS, in the assay with ACHN renal, in the assay with A549 NSCLC and with RPMI-8226 leukemia was more than 100 µM in each case. Also, the TGI in the assay on KM12 colon, in the assay on SR leukemia, in the assay with NCI-H226 lung, in the assay on NCI/ADR-RES ovarian, in the assay on LOX IMVI melanoma and in the assay with BT-549 breast was more than 100 µM in each case. For the same compound, the TGI in the assay with SW-620 colon, in the assay with MDA-MB-435, in the assay with 786-0 renal, in the assay on A498 renal, in the assay on CCRF-CEM leukemia and in the assay with NCI-H23 lung was more than 100 µM each time. Moreover, the TGI in the assay on HCT-116 colon was more than 100 µM.
For `O=C(NO)c1ccc(OCc2ccccc2)cc1`, the TGI in the assay on NCI-H460 lung is more than 100 µM; in the assay with COLO 205 colon, 77.6 µM; in the assay on SNB-19 CNS it was more than 100 µM; in the assay on ACHN renal it was 88.8 µM; with A549 NSCLC, more than 100 µM; with RPMI-8226 leukemia, more than 100 µM. Also, the TGI was more than 100 µM in the assay with U251 CNS; more than 100 µM in the assay on KM12 colon; 90.9 µM in the assay on SR leukemia; more than 100 µM in the assay with NCI-H226 lung; 32.1 µM in the assay with NCI/ADR-RES ovarian; 55.8 µM with LOX IMVI melanoma. Also, the TGI was more than 100 µM with BT-549 breast; more than 100 µM with SW-620 colon; more than 100 µM in the assay with MDA-MB-435; 55.3 µM with 786-0 renal; 43.4 µM with A498 renal; more than 100 µM in the assay on CCRF-CEM leukemia. The figures for the TGI in the assay with NCI-H23 lung and in the assay with HCT-116 colon were 28.1 µM and 27.4 µM, respectively.
On to `CC(C)=CCC/C(C)=C/CC/C(C)=C/CC/C(C=O)=C/CC/C(C)=C\CC/C(C)=C/CC/C(C)=C/CC/C(C)=C/CC1=CC(=O)C=CC1=O`, for which the TGI in the assay with NCI-H460 lung, in the assay with COLO 205 colon, with SNB-19 CNS, in the assay with ACHN renal, in the assay with A549 NSCLC and with RPMI-8226 leukemia was more than 100 µM throughout. Further, the TGI in the assay with U251 CNS, in the assay with KM12 colon, in the assay with SR leukemia, in the assay with NCI/ADR-RES ovarian, in the assay on LOX IMVI melanoma and with BT-549 breast was more than 100 µM throughout. Also, the TGI in the assay with SW-620 colon, in the assay with MDA-MB-435, with 786-0 renal, in the assay on A498 renal, in the assay with CCRF-CEM leukemia and with NCI-H23 lung was more than 100 µM throughout. For the same compound, the TGI with HCT-116 colon was more than 100 µM.
As for `CC1(C)OC([C@H](O)CO)C([C@H]2NCCS2)O1` (stereo partly drawn), the TGI in the assay on NCI-H460 lung, in the assay on COLO 205 colon, in the assay on SNB-19 CNS, with ACHN renal, in the assay on A549 NSCLC and in the assay with RPMI-8226 leukemia was more than 100 µM each time. Further, the TGI with U251 CNS, in the assay with KM12 colon, in the assay with SR leukemia, with NCI-H226 lung, in the assay with NCI/ADR-RES ovarian and in the assay with LOX IMVI melanoma was more than 100 µM in each case. Besides, the TGI in the assay with BT-549 breast, in the assay on SW-620 colon, with MDA-MB-435, with 786-0 renal, with A498 renal and in the assay on CCRF-CEM leukemia was more than 100 µM in each case. Moreover, the TGI in the assay on NCI-H23 lung and in the assay with HCT-116 colon was more than 100 µM throughout.
For the compound `CN(CCNC(=O)c1cc(-c2ccccc2)nc2ccccc12)CCNC(=O)c1cc(-c2ccccc2)nc2ccccc12`, the TGI in the assay with NCI-H460 lung is more than 100 µM; with COLO 205 colon it was 4.71 µM; with SNB-19 CNS it was more than 100 µM; in the assay on ACHN renal, more than 100 µM; in the assay with A549 NSCLC it was more than 100 µM; in the assay with RPMI-8226 leukemia, more than 100 µM. Further, the TGI in the assay with U251 CNS is 30.9 µM; with KM12 colon, more than 40.5 µM; with SR leukemia it was 7.63 µM; with NCI-H226 lung, 55.5 µM; with NCI/ADR-RES ovarian it was more than 100 µM; in the assay with LOX IMVI melanoma, 16 µM. In addition, the TGI in the assay with BT-549 breast is more than 100 µM; with SW-620 colon, 24.9 µM; in the assay with MDA-MB-435 it was 13.1 µM; in the assay on 786-0 renal, 23.5 µM; in the assay on A498 renal, 37.6 µM; in the assay with CCRF-CEM leukemia, more than 100 µM. For the same compound, the TGI with NCI-H23 lung is more than 100 µM; in the assay on HCT-116 colon it was more than 46.4 µM.
Take `CCOC(=O)C1C(=O)CC(C)(O)C(C(=O)OCC)C1c1ccc(OC)cc1` (stereo not drawn): the TGI in the assay with NCI-H460 lung, in the assay with COLO 205 colon, in the assay with SNB-19 CNS, in the assay on ACHN renal, in the assay with A549 NSCLC and in the assay with RPMI-8226 leukemia was more than 100 µM each time. Moreover, the TGI in the assay with U251 CNS, with KM12 colon, with SR leukemia, in the assay on NCI-H226 lung, in the assay with NCI/ADR-RES ovarian and in the assay with LOX IMVI melanoma was more than 100 µM each time. Further, the TGI with BT-549 breast, in the assay on SW-620 colon, in the assay on MDA-MB-435, in the assay on 786-0 renal, with A498 renal and with CCRF-CEM leukemia was more than 100 µM each time. Moreover, the TGI with NCI-H23 lung and in the assay on HCT-116 colon was more than 100 µM in each case.
On to `CCCCN1C(=O)C[C@H]2[C@@H]3CCc4cc(OCCN5CCCC5)ccc4[C@H]3CC[C@]2(C)C1=O`, for which the TGI with NCI-H460 lung came out at 21.3 µM; with COLO 205 colon, 3.95 µM; in the assay on SNB-19 CNS, 26.5 µM; in the assay with ACHN renal, 25.5 µM; in the assay with A549 NSCLC, 22.5 µM; with RPMI-8226 leukemia it was 9.53 µM. The TGI in the assay on U251 CNS was determined as 19.4 µM; with KM12 colon, 21.9 µM; in the assay with SR leukemia, 23.6 µM; in the assay with NCI-H226 lung, 21.4 µM; in the assay on NCI/ADR-RES ovarian, 38 µM; in the assay on LOX IMVI melanoma, 10.8 µM. Further, the TGI in the assay on BT-549 breast was 26.6 µM; in the assay with SW-620 colon, 25.1 µM; in the assay on MDA-MB-435, 19.1 µM; in the assay on 786-0 renal, 9.64 µM; in the assay on A498 renal, 29.4 µM; in the assay on CCRF-CEM leukemia, 15 µM. Besides, the TGI with NCI-H23 lung stood at 25.6 µM; with HCT-116 colon it was 16.4 µM.

The values above are taken from PubChem BioAssay (NCI).
